The test system of test [1] is SOCE (store operated calcium entry) in CHO cells. As to the kind of experiment: Assay of SOCE (store operated calcium entry)-inhibiting action. Conditions: Cricetulus griseus, CHO, CHO cells, thapsigargin, read-out: SOCE level (percentage of inhibition); for inhibition at 10 µM: test compound 10 μmol; for inhibition at 30 µM: test compound 30 μmol; for inhibition at 100 µM: test compound 100 μmol. The format is cell-based, Chinese hamster. Put shortly:
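CHO cells in calcium-free BSS received compound, then 1 μM thapsigargin 2 min later to deplete stores; after 9 min, 2 mM calcium chloride (final) added. Percent inhibition of the rise in intracellular calcium determined at various compound concentrations.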

The subject of test [2] is IICR (IP3 induced calcium release) in CHO cells. As to the kind of experiment: Assay of IICR (IP3 induced calcium release)-inhibiting action. The format is cell-based, Chinese hamster. To be noted: Cricetulus griseus, CHO, CHO cells, 10 μM ATP, read-out: IICR level (percentage of inhibition); for inhibition at 10 µM: test compound 10 μmol; for inhibition at 30 µM: test compound 30 μmol; for inhibition at 100 µM: test compound 100 μmol. Put shortly: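 Inhibition (%) of the intracellular calcium increase triggered by 10 μM ATP, measured in CHO cells in BSS with calcium. Compound given 1 min after the buffer exchange and 2 min before ATP; values reported per compound concentration.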

Consider `CN(CCO)CCC(=O)c1ccsc1` [Example 254, 2-(N-2-hydroxyethylmethyl)aminoethyl-3-thiophenylketone], for which, in test [1], the inhibition (as a rule, how much of the control response was suppressed) at 10 µM came to 0%; the inhibition at 30 µM is 0%; the inhibition at 100 µM is 0%. For the same compound, in test [2], the inhibition at 10 µM is 0%, the inhibition at 30 µM was found to be 30% and the inhibition at 100 µM turned out to be 40%.
Regarding `CCCCN(CCO)CCC(=O)c1ccc(C)o1` [Example 255, 2-(N-2-hydroxyethylbutyl)aminoethyl-5-methyl-2-furylketone], in test [1], the inhibition at 10 µM is 0%, the inhibition at 30 µM turned out to be 0% and the inhibition at 100 µM came out at 0%. Also, in test [2], the inhibition at 10 µM amounted to 0%, the inhibition at 30 µM was 30% and the inhibition at 100 µM was 50%.
Take `CC(C)(C)N(CCC(=O)c1nccs1)Cc1ccccc1` [Example 256, 2-(N-benzyl-t-butyl)aminoethyl-2-thiazolylketone]: in test [1], the inhibition at 10 µM was 0%, the inhibition at 30 µM is 0% and the inhibition at 100 µM was 10%. Further, in test [2], the inhibition at 10 µM came out at 50%, the inhibition at 30 µM was found to be 90% and the inhibition at 100 µM came out at 80%.
`Cc1nc(C)c(C(=O)CCN(CCO)C(C)C)s1` [Example 257, 2-(N-isopropyl-2-hydroxyethyl)aminoethyl-2,4-dimethyl-5-thiazolylketone]: in test [1], the inhibition at 10 µM is 0%, the inhibition at 30 µM was 0% and the inhibition at 100 µM came to 0%. Also, in test [2], the inhibition at 10 µM is 0%, the inhibition at 30 µM stood at 0% and the inhibition at 100 µM was 20%.
As to `CN(CCC(=O)c1nccs1)Cc1ccccc1` [Example 258, 2-(N-benzylmethyl)aminoethyl-2-thiazolylketone], in test [1], the inhibition at 10 µM is 0%, the inhibition at 30 µM was 0% and the inhibition at 100 µM turned out to be 0%. Further, in test [2], the inhibition at 10 µM was 20%, the inhibition at 30 µM was found to be 0% and the inhibition at 100 µM worked out at 20%.
As for `CN(CCO)CCC(=O)c1cccnc1` [Example 259, 2-(N-2-hydroxyethylmethyl)aminoethyl-3-pyridylketone], in test [1], the inhibition at 10 µM was determined as 0%, the inhibition at 30 µM turned out to be 0% and the inhibition at 100 µM stood at 0%. Besides, in test [2], the inhibition at 10 µM is 0%, the inhibition at 30 µM worked out at 0% and the inhibition at 100 µM turned out to be 20%.
As to `CCc1nccnc1C(=O)CCN(CCO)CCO` [Example 260, 2-(N-bis-hydroxyethyl)aminoethyl-3-ethyl-2-pyrazylketone], in test [1], the inhibition at 10 µM was determined as 0%, the inhibition at 30 µM came out at 0% and the inhibition at 100 µM was 0%. In addition, in test [2], the inhibition at 10 µM is 20%, the inhibition at 30 µM turned out to be 0% and the inhibition at 100 µM came to 20%.
Regarding `CN(CCO)CCC(=O)c1ccncc1` [Example 262, 2-(N-2-hydroxyethylmethyl)aminoethyl-4-pyridylketone], in test [1], the inhibition at 10 µM was 0%, the inhibition at 30 µM came to 0% and the inhibition at 100 µM amounted to 0%. Moreover, in test [2], the inhibition at 10 µM amounted to 0%, the inhibition at 30 µM came out at 0% and the inhibition at 100 µM came out at 70%.
Consider `Cc1csc(C(=O)CCN(Cc2ccccc2)C(C)C)n1` [Example 263, 2-(N-benzylisopropyl)aminoethyl-4-methyl-2-thiazolylketone], for which, in test [1], the inhibition at 10 µM came out at 0%, the inhibition at 30 µM is 0% and the inhibition at 100 µM came to 30%. In test [2], the inhibition at 10 µM was 0%, the inhibition at 30 µM was found to be 0% and the inhibition at 100 µM turned out to be 70%.
Consider `CCCCN(CCO)CCC(=O)c1nc(C)cs1` [Example 264, 2-(N-butyl-2-hydroxyethyl)aminoethyl-4-methyl-2-thiazolylketone], for which, in test [1], the inhibition at 10 µM stood at 0%, the inhibition at 30 µM turned out to be 0% and the inhibition at 100 µM turned out to be 10%. Moreover, in test [2], the inhibition at 10 µM came to 0%, the inhibition at 30 µM turned out to be 0% and the inhibition at 100 µM turned out to be 70%.
Regarding `Cc1csc(C(=O)CCN(C)Cc2ccccc2)n1` [Example 265, 2-(N-benzylmethyl)aminoethyl-4-methyl-2-thiazolylketone], in test [1], the inhibition at 10 µM turned out to be 10%, the inhibition at 30 µM is 10% and the inhibition at 100 µM is 10%. Moreover, in test [2], the inhibition at 10 µM is 0%, the inhibition at 30 µM was determined as 0% and the inhibition at 100 µM is 70%.
As to `CC(C)N(CCC(=O)c1ccc(Cl)s1)Cc1ccccc1` [Example 266, 2-(N-benzylisopropyl)aminoethyl-5-chloro-2-thiophenylketone], in test [1], the inhibition at 10 µM was found to be 0%, the inhibition at 30 µM was 20% and the inhibition at 100 µM was 40%. In addition, in test [2], the inhibition at 10 µM is 0%, the inhibition at 30 µM was 0% and the inhibition at 100 µM was 70%.
For `CC(C)N(CCO)CCC(=O)c1ccc(Cl)s1` [Example 267, 2-(N-2-hydroxyethylisopropyl)aminoethyl-5-chloro-2-thiophenylketone], in test [1], the inhibition at 10 µM was found to be 0%, the inhibition at 30 µM is 0% and the inhibition at 100 µM was 0%. Besides, in test [2], the inhibition at 10 µM stood at 0%, the inhibition at 30 µM worked out at 0% and the inhibition at 100 µM stood at 70%.
`O=C(CCN(CCO)Cc1ccccc1)c1ccc(Cl)s1` [Example 268, 2-(N-benzyl-2-hydroxyethyl)aminoethyl-5-chloro-2-thiophenylketone]: in test [1], the inhibition at 10 µM turned out to be 10%, the inhibition at 30 µM amounted to 0% and the inhibition at 100 µM was found to be 10%. Also, in test [2], the inhibition at 10 µM was 0%, the inhibition at 30 µM came to 0% and the inhibition at 100 µM is 70%.
For the compound `O=C(CCNCCCO)c1cnccn1` [Example 270, 2-(N-hydroxypropyl)aminoethyl-2-pyrazylketone], in test [1], the inhibition at 30 µM amounted to 10% and the inhibition at 100 µM is 30%. For the same compound, in test [2], the inhibition at 10 µM was found to be 20%, the inhibition at 30 µM was 0% and the inhibition at 100 µM amounted to 10%.
Take `O=C(CCNCc1ccccc1)c1ccncc1` [Example 271, 2-(N-benzyl)aminoethyl-4-pyridylketone]: in test [1], the inhibition at 30 µM is 0% and the inhibition at 100 µM came to 10%. In test [2], the inhibition at 10 µM turned out to be 10%, the inhibition at 30 µM was found to be 0% and the inhibition at 100 µM is 40%.
In the case of `O=C(CCNC(c1ccccc1)C(O)c1ccccc1)c1ccco1` (stereo not drawn) [Example 272, 2-(N-1,2-diphenyl-2-hydroxyethyl)aminoethyl-2-furylketone], in test [1], the inhibition at 30 µM turned out to be 20% and the inhibition at 100 µM amounted to 40%. Further, in test [2], the inhibition at 10 µM was determined as 40%, the inhibition at 30 µM turned out to be 20% and the inhibition at 100 µM was determined as 20%.
On to `O=C(CCNCCN(CCO)CCC(=O)c1cnccn1)c1cnccn1` [Example 273, N,N-bis(2-pyrazoylethyl)-N-hydroxyethylethylenediamine], for which, in test [1], the inhibition at 30 µM was found to be 0% and the inhibition at 100 µM stood at 10%. Moreover, in test [2], the inhibition at 10 µM was 40%, the inhibition at 30 µM was determined as 30% and the inhibition at 100 µM was 20%.
For the compound `O=C(CCNCCO)c1ccco1` [Example 275, 2-(N-2-hydroxyethyl)aminoethyl-2-furylketone], in test [1], the inhibition at 30 µM worked out at 0% and the inhibition at 100 µM amounted to 0%. In test [2], the inhibition at 10 µM is 30%, the inhibition at 30 µM was 30% and the inhibition at 100 µM is 30%.
In the case of `O=C(CCNCCCCNCCC(=O)c1cnccn1)c1cnccn1` [Example 276, N,N-bis(2-pyrazoylethyl)tetramethylenediamine], in test [1], the inhibition at 30 µM was determined as 0% and the inhibition at 100 µM was 0%. In test [2], the inhibition at 10 µM was determined as 0%, the inhibition at 30 µM stood at 0% and the inhibition at 100 µM came to 20%.
For `O=C(CCN(CCO)CCO)c1ccc(Cl)s1` [Example 277, 2-bis(N-2-hydroxyethyl)aminoethyl-5-chloro-2-thienylketone], in test [1], the inhibition at 30 µM was 0% and the inhibition at 100 µM is 0%. Besides, in test [2], the inhibition at 10 µM stood at 0%, the inhibition at 30 µM was determined as 0% and the inhibition at 100 µM worked out at 20%.
On to `CCN(CCC(=O)c1ccc(Cl)s1)Cc1ccccc1` [Example 278, 2-(N-ethylbenzyl)aminoethyl-5-chloro-2-thienylketone], for which, in test [1], the inhibition at 30 µM came to 30% and the inhibition at 100 µM was found to be 40%. In test [2], the inhibition at 10 µM came out at 30%, the inhibition at 30 µM turned out to be 20% and the inhibition at 100 µM was determined as 60%.
`CN(CCC(=O)c1ccc(Cl)s1)Cc1ccccc1` [Example 279, 2-(N-methylbenzyl)aminoethyl-5-chloro-2-thienylketone]: in test [1], the inhibition at 30 µM is 30% and the inhibition at 100 µM was found to be 40%. Further, in test [2], the inhibition at 10 µM came to 20%, the inhibition at 30 µM stood at 0% and the inhibition at 100 µM was 40%.

The values are drawn from US8937091B2 (Japan Science and Technology Agency, priority 2009, dated 2015).
